Assay results as given in BigSolDB 2.1.

**Q.** Which solubility (mole fraction) (in acetone, 283.15 K) does the source give for `Nc1n[nH]c(=S)s1` here?
**A.** 0.0101

**Q.** And the solubility (mole fraction) (in acetone, 288.15 K)?
**A.** 0.0107

**Q.** What about the solubility (mole fraction) (in acetone, 293.15 K) of the same molecule?
**A.** 0.0114

**Q.** What about the solubility (mole fraction) (in acetone, 298.15 K) of the same molecule?
**A.** 0.0121

**Q.** What about the solubility (mole fraction) (in acetone, 303.15 K) of the same molecule?
**A.** 0.0129

**Q.** What about the solubility (mole fraction) (in acetone, 308.15 K) of the same molecule?
**A.** 0.0135

**Q.** What about the solubility (mole fraction) (in acetone, 313.15 K) of the same molecule?
**A.** 0.0142

**Q.** And the solubility (mole fraction) (in acetone, 318.15 K)?
**A.** 0.015

**Q.** What about the solubility (mole fraction) (in acetone, 323.15 K) of the same molecule?
**A.** 0.0158

**Q.** And the solubility (mole fraction) (in cyclohexanone, 283.15 K)?
**A.** 0.0325

**Q.** And the solubility (mole fraction) (in cyclohexanone, 288.15 K)?
**A.** 0.0343

**Q.** What about the solubility (mole fraction) (in cyclohexanone, 293.15 K) of the same molecule?
**A.** 0.036

**Q.** What about the solubility (mole fraction) (in cyclohexanone, 298.15 K) of the same molecule?
**A.** 0.0378

**Q.** And the solubility (mole fraction) (in cyclohexanone, 303.15 K)?
**A.** 0.0397

**Q.** What about the solubility (mole fraction) (in cyclohexanone, 308.15 K) of the same molecule?
**A.** 0.0415

**Q.** And the solubility (mole fraction) (in cyclohexanone, 313.15 K)?
**A.** 0.0433

**Q.** What about the solubility (mole fraction) (in cyclohexanone, 318.15 K) of the same molecule?
**A.** 0.0449

**Q.** What about the solubility (mole fraction) (in cyclohexanone, 323.15 K) of the same molecule?
**A.** 0.0467

**Q.** What about the solubility (mole fraction) (in ethanol, 283.15 K) of the same molecule?
**A.** 0.00402

**Q.** And the solubility (mole fraction) (in ethanol, 288.15 K)?
**A.** 0.00442

**Q.** And the solubility (mole fraction) (in ethanol, 293.15 K)?
**A.** 0.00486

**Q.** What about the solubility (mole fraction) (in ethanol, 298.15 K) of the same molecule?
**A.** 0.00526

**Q.** What about the solubility (mole fraction) (in ethanol, 303.15 K) of the same molecule?
**A.** 0.00578

**Q.** And the solubility (mole fraction) (in ethanol, 308.15 K)?
**A.** 0.00629

**Q.** And the solubility (mole fraction) (in ethanol, 313.15 K)?
**A.** 0.00684

**Q.** What about the solubility (mole fraction) (in ethanol, 318.15 K) of the same molecule?
**A.** 0.00741

**Q.** And the solubility (mole fraction) (in ethanol, 323.15 K)?
**A.** 0.008

**Q.** What about the solubility (mole fraction) (in ethyl acetate, 283.15 K) of the same molecule?
**A.** 0.00203

**Q.** What about the solubility (mole fraction) (in ethyl acetate, 288.15 K) of the same molecule?
**A.** 0.00222

**Q.** What about the solubility (mole fraction) (in ethyl acetate, 293.15 K) of the same molecule?
**A.** 0.00242

**Q.** And the solubility (mole fraction) (in ethyl acetate, 298.15 K)?
**A.** 0.00263

**Q.** And the solubility (mole fraction) (in ethyl acetate, 303.15 K)?
**A.** 0.0028

**Q.** And the solubility (mole fraction) (in ethyl acetate, 308.15 K)?
**A.** 0.00301

**Q.** What about the solubility (mole fraction) (in ethyl acetate, 313.15 K) of the same molecule?
**A.** 0.00326

**Q.** What about the solubility (mole fraction) (in ethyl acetate, 318.15 K) of the same molecule?
**A.** 0.0035

**Q.** And the solubility (mole fraction) (in ethyl acetate, 323.15 K)?
**A.** 0.00374

**Q.** And the solubility (mole fraction) (in isobutanol, 283.15 K)?
**A.** 0.00148

**Q.** What about the solubility (mole fraction) (in isobutanol, 288.15 K) of the same molecule?
**A.** 0.0017

**Q.** What about the solubility (mole fraction) (in isobutanol, 293.15 K) of the same molecule?
**A.** 0.00197

**Q.** And the solubility (mole fraction) (in isobutanol, 298.15 K)?
**A.** 0.00225

**Q.** And the solubility (mole fraction) (in isobutanol, 303.15 K)?
**A.** 0.00257

**Q.** And the solubility (mole fraction) (in isobutanol, 308.15 K)?
**A.** 0.00289

**Q.** What about the solubility (mole fraction) (in isobutanol, 313.15 K) of the same molecule?
**A.** 0.00333

**Q.** And the solubility (mole fraction) (in isobutanol, 318.15 K)?
**A.** 0.00376

**Q.** And the solubility (mole fraction) (in isobutanol, 323.15 K)?
**A.** 0.0042

**Q.** And the solubility (mole fraction) (in isopropanol, 283.15 K)?
**A.** 0.00224

**Q.** And the solubility (mole fraction) (in isopropanol, 288.15 K)?
**A.** 0.00259

**Q.** And the solubility (mole fraction) (in isopropanol, 293.15 K)?
**A.** 0.00302

**Q.** What about the solubility (mole fraction) (in isopropanol, 298.15 K) of the same molecule?
**A.** 0.00351

**Q.** What about the solubility (mole fraction) (in isopropanol, 303.15 K) of the same molecule?
**A.** 0.00397

**Q.** What about the solubility (mole fraction) (in isopropanol, 308.15 K) of the same molecule?
**A.** 0.00447

**Q.** And the solubility (mole fraction) (in isopropanol, 313.15 K)?
**A.** 0.00501

**Q.** And the solubility (mole fraction) (in isopropanol, 318.15 K)?
**A.** 0.0057

**Q.** What about the solubility (mole fraction) (in isopropanol, 323.15 K) of the same molecule?
**A.** 0.0065

**Q.** What about the solubility (mole fraction) (in methanol, 283.15 K) of the same molecule?
**A.** 0.00454

**Q.** What about the solubility (mole fraction) (in methanol, 288.15 K) of the same molecule?
**A.** 0.00505

**Q.** What about the solubility (mole fraction) (in methanol, 293.15 K) of the same molecule?
**A.** 0.00553

**Q.** What about the solubility (mole fraction) (in methanol, 298.15 K) of the same molecule?
**A.** 0.00617

**Q.** What about the solubility (mole fraction) (in methanol, 303.15 K) of the same molecule?
**A.** 0.00676

**Q.** What about the solubility (mole fraction) (in methanol, 308.15 K) of the same molecule?
**A.** 0.00737

**Q.** What about the solubility (mole fraction) (in methanol, 313.15 K) of the same molecule?
**A.** 0.00806

**Q.** And the solubility (mole fraction) (in methanol, 318.15 K)?
**A.** 0.00882

**Q.** What about the solubility (mole fraction) (in methanol, 323.15 K) of the same molecule?
**A.** 0.00961

**Q.** What about the solubility (mole fraction) (in methyl acetate, 283.15 K) of the same molecule?
**A.** 0.0022

**Q.** And the solubility (mole fraction) (in methyl acetate, 288.15 K)?
**A.** 0.00239

**Q.** What about the solubility (mole fraction) (in methyl acetate, 293.15 K) of the same molecule?
**A.** 0.0026

**Q.** What about the solubility (mole fraction) (in methyl acetate, 298.15 K) of the same molecule?
**A.** 0.00285

**Q.** And the solubility (mole fraction) (in methyl acetate, 303.15 K)?
**A.** 0.00308

**Q.** And the solubility (mole fraction) (in methyl acetate, 308.15 K)?
**A.** 0.00332

**Q.** What about the solubility (mole fraction) (in methyl acetate, 313.15 K) of the same molecule?
**A.** 0.00361

**Q.** And the solubility (mole fraction) (in methyl acetate, 318.15 K)?
**A.** 0.00386

**Q.** What about the solubility (mole fraction) (in methyl acetate, 323.15 K) of the same molecule?
**A.** 0.00411

**Q.** And the solubility (mole fraction) (in n-butanol, 283.15 K)?
**A.** 0.00216

**Q.** And the solubility (mole fraction) (in n-butanol, 288.15 K)?
**A.** 0.00243

**Q.** And the solubility (mole fraction) (in n-butanol, 293.15 K)?
**A.** 0.00284

**Q.** What about the solubility (mole fraction) (in n-butanol, 298.15 K) of the same molecule?
**A.** 0.00327

**Q.** And the solubility (mole fraction) (in n-butanol, 303.15 K)?
**A.** 0.00372

**Q.** What about the solubility (mole fraction) (in n-butanol, 308.15 K) of the same molecule?
**A.** 0.00427

**Q.** And the solubility (mole fraction) (in n-butanol, 313.15 K)?
**A.** 0.0048

**Q.** And the solubility (mole fraction) (in n-butanol, 318.15 K)?
**A.** 0.00546

**Q.** What about the solubility (mole fraction) (in n-butanol, 323.15 K) of the same molecule?
**A.** 0.0061

**Q.** What about the solubility (mole fraction) (in n-butyl acetate, 283.15 K) of the same molecule?
**A.** 0.00158

**Q.** And the solubility (mole fraction) (in n-butyl acetate, 288.15 K)?
**A.** 0.00172

**Q.** What about the solubility (mole fraction) (in n-butyl acetate, 293.15 K) of the same molecule?
**A.** 0.00189

**Q.** What about the solubility (mole fraction) (in n-butyl acetate, 298.15 K) of the same molecule?
**A.** 0.00205

**Q.** What about the solubility (mole fraction) (in n-butyl acetate, 303.15 K) of the same molecule?
**A.** 0.00221

**Q.** What about the solubility (mole fraction) (in n-butyl acetate, 308.15 K) of the same molecule?
**A.** 0.0024

**Q.** What about the solubility (mole fraction) (in n-butyl acetate, 313.15 K) of the same molecule?
**A.** 0.0026

**Q.** And the solubility (mole fraction) (in n-butyl acetate, 318.15 K)?
**A.** 0.00283

**Q.** And the solubility (mole fraction) (in n-butyl acetate, 323.15 K)?
**A.** 0.00304

**Q.** What about the solubility (mole fraction) (in n-propanol, 283.15 K) of the same molecule?
**A.** 0.0022

**Q.** And the solubility (mole fraction) (in n-propanol, 288.15 K)?
**A.** 0.00259

**Q.** And the solubility (mole fraction) (in n-propanol, 293.15 K)?
**A.** 0.00293

**Q.** What about the solubility (mole fraction) (in n-propanol, 298.15 K) of the same molecule?
**A.** 0.00341

**Q.** What about the solubility (mole fraction) (in n-propanol, 303.15 K) of the same molecule?
**A.** 0.00387

**Q.** And the solubility (mole fraction) (in n-propanol, 308.15 K)?
**A.** 0.0043

**Q.** And the solubility (mole fraction) (in n-propanol, 313.15 K)?
**A.** 0.00489

**Q.** And the solubility (mole fraction) (in n-propanol, 318.15 K)?
**A.** 0.00561

**Q.** And the solubility (mole fraction) (in n-propanol, 323.15 K)?
**A.** 0.00629

**Q.** And the solubility (mole fraction) (in n-propyl acetate, 283.15 K)?
**A.** 0.00183

**Q.** What about the solubility (mole fraction) (in n-propyl acetate, 288.15 K) of the same molecule?
**A.** 0.00197

**Q.** What about the solubility (mole fraction) (in n-propyl acetate, 293.15 K) of the same molecule?
**A.** 0.00212

**Q.** And the solubility (mole fraction) (in n-propyl acetate, 298.15 K)?
**A.** 0.00228

**Q.** What about the solubility (mole fraction) (in n-propyl acetate, 303.15 K) of the same molecule?
**A.** 0.00243

**Q.** What about the solubility (mole fraction) (in n-propyl acetate, 308.15 K) of the same molecule?
**A.** 0.00259

**Q.** What about the solubility (mole fraction) (in n-propyl acetate, 313.15 K) of the same molecule?
**A.** 0.00278

**Q.** What about the solubility (mole fraction) (in n-propyl acetate, 318.15 K) of the same molecule?
**A.** 0.00295

**Q.** And the solubility (mole fraction) (in n-propyl acetate, 323.15 K)?
**A.** 0.00316

**Q.** And the solubility (mole fraction) (in sec-butanol, 283.15 K)?
**A.** 0.00247

**Q.** And the solubility (mole fraction) (in sec-butanol, 288.15 K)?
**A.** 0.0029

**Q.** What about the solubility (mole fraction) (in sec-butanol, 293.15 K) of the same molecule?
**A.** 0.00337

**Q.** And the solubility (mole fraction) (in sec-butanol, 298.15 K)?
**A.** 0.00397

**Q.** And the solubility (mole fraction) (in sec-butanol, 303.15 K)?
**A.** 0.00451

**Q.** What about the solubility (mole fraction) (in sec-butanol, 308.15 K) of the same molecule?
**A.** 0.0051

**Q.** And the solubility (mole fraction) (in sec-butanol, 313.15 K)?
**A.** 0.00584

**Q.** What about the solubility (mole fraction) (in sec-butanol, 318.15 K) of the same molecule?
**A.** 0.00667

**Q.** And the solubility (mole fraction) (in sec-butanol, 323.15 K)?
**A.** 0.00768
